# Reference: patent US20120070390A1, “Topical drug delivery system with dual carriers” (priority 2010, published 2012)
# Like-named read-outs stand apart in the source and are kept apart here.
# What was measured:
# MRSA = test: Petri dish zone of inhibition test; type: cell-based, Methicillin Resistant Staph Aureus; details: FIG. 17, identical size drops (diameters of ZOA)
# Staph aureus = test: Petri dish zone of inhibition comparison with control agents; type: cell-based, Staphylococcus aureus; details: FIG. 16, identical size drops (diameters of ZOA)
# HL-60 cells = details: cited from earlier work; for subsequent retinoid-induced TGM2 expression after priming by pretreatment: HL-60 cells, short exposure
# [1] = tested on: mouse embryonic stem cells and embryoid bodies; details: cited from earlier work
# Enterococcus faecalis = test: Petri dish zone of inhibition comparison with control agents; type: cell-based; details: FIG. 25, identical size drops
# [2] = Study I: vancomycin peaks and troughs in the patient; type: in vivo, human; details: 1.5 g BID, Q12, seven doses; ranges not noted
# Description: Fri 2/5: Detection of a Strep-A strain, confirmed by culture study. Shifted from gentamycin to vancomycin 1.5 g BID, Q12. Patient was kept on this dosing regimen until 2/8 (date of discharge from hospital).
# Mon 2/8: Patient received the last of seven doses of vancomycin. Throughout all of this their peaks (within 1 hour of receiving vancomycin) and troughs (before receiving vancomycin) were normal (ranges not noted here). Patient was discharged from the hospital on this date.
# [3] = tested on: MRSA infection and Grade I diabetic ulcer of the left hallux with cellulitus; test: Study III: human field study, diabetic foot lesion with MRSA cellulitus; type: in vivo; details: IV, 8 days following admission, before the invention was used
# Description: In this embodiment, the additional ingredient to hasten a third therapeutic tissue healing effect was added. This embodiment used vitamin D in a small but medically efficacious amount.
compound,measurement,setting,value
CC[C@H]1OC(=O)[C@H](C)[C@@H](O[C@H]2C[C@@](C)(OC)[C@@H](O)[C@H](C)O2)[C@H](C)[C@@H](O[C@@H]2O[C@H](C)C[C@H](N(C)C)[C@H]2O)[C@](C)(O)C[C@@H](C)C(=O)[C@H](C)[C@@H](O)[C@]1(C)O [Erythromycin],zones of inhibition of control agents compared with the formulations of the invention,MRSA,considerably reduced zones of inhibition
same,zones of inhibition of control agents compared with the formulations of the invention,Staph aureus,considerably reduced zones of inhibition
"C[S+](C)[O-] [DMSO, dimethyl sulfoxide]",amount at which desired cellular responses occurred,HL-60 cells; DMSO,less than 2%
same,subsequent retinoid-induced TGM2 expression after priming by pretreatment,HL-60 cells,increases subsequent retinoid-induced TGM2 expression
same,mRNA and protein expression in epigenetic profiles,[1],upregulation of mRNA and protein expression
vitamin D,subsequent retinoid-induced TGM2 expression after priming by pretreatment,HL-60 cells,increases subsequent retinoid-induced TGM2 expression
same,amount at which desired cellular responses occurred,HL-60 cells; vitamin D,about 100 nM
CN[C@H](CC(C)C)C(=O)N[C@H]1C(=O)N[C@@H](CC(N)=O)C(=O)N[C@H]2C(=O)N[C@H]3C(=O)N[C@H](C(=O)N[C@H](C(=O)O)c4cc(O)cc(O)c4-c4cc3ccc4O)[C@H](O)c3ccc(c(Cl)c3)Oc3cc2cc(c3O[C@@H]2O[C@H](CO)[C@@H](O)[C@H](O)[C@H]2O[C@H]2C[C@](C)(N)[C@H](O)[C@H](C)O2)Oc2ccc(cc2Cl)[C@H]1O [Vancomycin],zones of inhibition of control agents compared with the formulations of the invention,Enterococcus faecalis,considerably reduced zones of inhibition
same,peaks (within 1 hour of receiving) and troughs (before receiving),[2],normal
same,patient response to treatment,[3],did not respond
CO[C@@]1(NC(=O)Cc2cccs2)C(=O)N2C(C(=O)O)=C(COC(N)=O)CS[C@@H]21 [Cefoxicillin],zones of inhibition of control agents compared with the formulations of the invention,MRSA,considerably reduced zones of inhibition
